Laboratory results: US7371207B2 (Wyeth, priority 2002, dated 2008)
Entries after “also recorded” stand apart in the source; their conditions may differ.

What was measured:
[1] = test system: gene expression in the kidney of mice expressing ΔAF1-ERα; test: Real-time PCR of kidney gene expression in ERαERβKO or ERαKO mice expressing ΔAF1-ERα
Description: Kidney gene expression values were determined by real-time PCR for each individual animal and normalized for GAPDH expression. The mean expression level in vehicle-treated WT mice was defined as 1 for each gene. *p<0.01 for comparison to vehicle treated animals.
One week later, the animals were ovariectomized. Commencing the day after ovariectomy, each animal received a daily subcutaneous treatment with vehicle (50% DMSO, 50% phosphate buffered saline) or vehicle containing treatments for six weeks. Each group consisted of six or seven animals. Approximately 2 hours following the final treatment, the animals were euthanized with selected tissues frozen in liquid nitrogen for RNA analysis or on dry ice for histology.

[2] = test system: gene expression in the uterus; test: Real-time PCR of uterine gene expression in ovariectomized WT mice; type: in vivo, mouse; settings: various doses s.c. six weeks, FIG. 5
Text: (§1) One week later, the animals were ovariectomized.

[3] = test system: gene expression in the kidney; test: In situ hybridization of kidney, ovariectomized mice; type: in vivo, mouse; settings: 20 μg/kg/day E2 six weeks, FIG. 3
Text: No signal was detected with the corresponding sense probes.
Generally, in situ hybridization comprises the following major steps: (1) fixation of tissue or biological structure to be analyzed; (2) prehybridization treatment of the biological structure to increase accessibility of target nucleic acid, and to reduce nonspecific binding; (3) hybridization of the mixture of nucleic acids to the nucleic acid in the biological structure or tissue; (4) post-hybridization washes to remove nucleic acid fragments not bound in the hybridization, and (5) detection of the hybridized nucleic acid fragments. The probes used in such applications are typically labeled, for example, with radioisotopes or fluorescent reporters. Preferred probes are sufficiently long, for example, from about 50, 100, or 200 nucleotides to about 1000 or more nucleotides, to enable specific hybridization with the target nucleic acid(s) under stringent conditions.
as §1

[4] = test system: gene expression in bone marrow; test: GeneChip microarray survey of E2 regulated gene expression, bone marrow; type: in vivo, mouse; settings: 20 μg/kg/day E2 s.c. six weeks; WT and ERβKO ovariectomized mice; number of genes
Description: FIG. 1 depicts a pattern analysis generated by a GeneChip microarray analysis. […] Two hours following the final dose, the mice were euthanized and 13 tissues removed for RNA preparation. Two independent studies were performed, with total RNA pooled from two groups of three animals for each condition. Gene expression was quantified by GeneChip microarrays using murine U74 sub A arrays. Data were analyzed for patterns indicating either ERα or ERβ dependent regulation as shown. […] The number of genes in each tissue that matched the theoretical induction (↑) or repression (↓) patterns for ERα or ERβ are indicated.
as §1
GeneChip—Total RNA was prepared separately from each individual organ by using Trizol (Invitrogen) followed by subsequent repurification on Rneasy columns (Qiagen). In general, two pools of RNA were created using equal amounts of RNA from three mice. […]
Target Preparation and Array Hybridization—Total RNA was used to generate biotin labeled cRNA target as described (8) which was hybridized to the murine MG_U74Av2 probe arrays (Affymetrix, Santa Clara, Calif.) for 16 h at 45° C. Eleven biotin-labeled cRNAs at defined concentration were spiked into each hybridization and used to convert average difference values to frequencies expressed as parts per million. […]

[5] = 10 μg/kg/day E2 or 5 mg/kg/day tamoxifen, 6 weeks, FIG. 8

## C[C@]12CC[C@@H]3c4ccc(O)cc4CC[C@H]3[C@@H]1CC[C@@H]2O [E2, 17β-estradiol]
[1]; 10 μg/kg/day E2, 6 weeks, FIG. 8
  CYP7B1 expression in kidney, mice expressing ΔAF1-ERα (ERαERβKO or ERαKO): increased CYP7B1 expression
[1]; [5]
  BCAT1 expression in kidney, ERαERβKO mice: stimulated BCAT1 expression
  TF expression in kidney, ERαERβKO mice (express only ΔAF1-ERα): Neither compound could induce TF expression
[1]; WT versus ΔAF1-ERα mice, E2 versus tamoxifen
  mechanism of induction of BCAT1 in kidney (ERα AF1 or AF2): either AF1 or AF2 mechanisms; also recorded: both AF1 and AF2 mechanisms
[2]
  ED50 for BCAT1 induction in the uterus: 0.2 µg/kg/day
  ED50 for c-fos induction in the uterus: 2.7 µg/kg/day
[3]
  localization of induction of CYP7B1, TF, STAT5A and GADD45G in mouse kidney: induction of gene expression occurred in the juxtamedullary region of the kidney
[4]
  ERα pattern regulations in bone marrow, number of inductions: 3
  ERα pattern regulations in bone marrow, number of repressions: 3
